13 molecules from ChEMBL document CHEMBL1157067, “Agelastatin E, agelastatin F, and benzosceptrin C from the marine sponge Agelas dendromorpha” (2010) can be followed below.

The structures appear in SMILES notation. Active and inactive are the calls of the source. No cut-off for these calls is given here.

The first experiment relates to KB. The experiment is described as follows: Cytotoxicity against human KB cells at 3 uM. Format: functional.
`CN1C(=O)N[C@H]2[C@@H]3NC(=O)c4ccc(Br)n4[C@@H]3C[C@]21O` [AGELASTATIN A] yielded an Activity of 100%.

A further experiment concerns KB. In words: Cytotoxicity against human KB cells at 30 uM. Format: functional.
On to `Nc1nc([C@H]2[C@H](CNC(=O)c3cc(Br)c[nH]3)[C@@H](CNC(=O)c3cc(Br)c[nH]3)[C@@H]2c2c[nH]c(N)n2)c[nH]1`, for which the outcome was inactive.
Regarding `Cc1c[nH]c(=O)[nH]c1=O`, the outcome was inactive.
Molecule `CN1C(=O)N[C@H]2[C@@H]3NC(=O)c4ccc(Br)n4[C@@H]3C[C@]21O` [AGELASTATIN A] returned an Activity of 100%.
For `C[C@]1(COC(=O)c2cc(Br)c[nH]2)C[C@@H](C(=O)O)N=CN1`, the outcome was inactive.
`O=C1N[C@H]2[C@@H]3NC(=O)c4cc(Br)c(Br)n4[C@@H]3C[C@@]2(O)N1`: the outcome was inactive.
In the case of `CO[C@@]12C[C@@H]3[C@@H](NC(=O)c4ccc(Br)n43)[C@@H]1NC(=O)N2C`, the outcome was inactive.
With `Nc1nc2c([nH]1)c1c(c3[nH]c(N)nc32)[C@H](CNC(=O)c2cc(Br)c(Br)[nH]2)[C@H]1CNC(=O)c1cc(Br)c(Br)[nH]1`, the result was inactive.
Regarding `c1ccc2c(-c3c[nH]c(-c4c[nH]c5ccccc45)n3)c[nH]c2c1`, the outcome was inactive.
Take `N=C1N=C(NCCS(=O)(=O)O)/C(=C/C(O)CNC(=O)c2cc(Br)c(Br)[nH]2)N1` (centres undefined): the result was inactive.
Take `NC(=O)c1cc(Br)c(Br)[nH]1`: the outcome was inactive.
With `O=C1NCC(O)n2c1cc(Br)c2Br` (centres undefined), the result was inactive.
For `O=C1N[C@H]2[C@@H]3NC(=O)c4ccc(Br)n4[C@@H]3C[C@@]2(O)N1`, the result was inactive.
Same read-out and setting: as for `N=C1N=C(NCCS(=O)(=O)O)/C(=C/CCNC(=O)c2cc(Br)c(Br)[nH]2)N1`, the entry is “inactive”.
